This is an account of results in patent US9353113B2, “Tetrahydrocarboline derivative” (ONO PHARMACEUTICAL CO., LTD., priority 2011, dated 2016).

Structures can show the parent of a compound that is named as a salt.

The subject of the first data set is Crl:CD (Sparague-Dawley) male rat. Description: Measurement of blood pressure, heart rate in rat under wakefulness. The data set is classed as in vivo. Conditions: conscious rat, 100, 300 mg/kg forcedly orally administered, up to 180 minutes. The procedure:
A Crl:CD (Sparague-Dawley) male rat (Charles River Laboratories Japan, Inc., 8 weeks old) was anesthetized by inhalation of isoflurane. A catheter (INTRAMEDIC POLYETHYLENE Tubing PE50, CLAY ADAMS) was inserted and indwelled in a femoral artery and another end was exposed from dorsal skin. The rat was placed in a rearing cage for blood pressure measurement. After elapse of 2 hours or more from the insertion of the catheter, each of the compound of Reference Example 2 and the compound of Example 6(72) (dose: 100, 300 mg/kg) was forcedly orally administered, and blood pressure was measured under no anesthesia and no restraint. The blood pressure was measured by connecting the catheter inserted in the femoral artery and a blood pressure transducer (DX-360, Nihon Kohden Corporation) and passing through an amplifier for blood pressure measurement (Coupler•Amplifier PP-101HAP-101H, Nihon Kohden Corporation). Blood pressure signals were captured into a data acquisition analysis system (HEM 3.5, NOTOCORD SYSTEM S.A.) through a polygraph system (PEG-1000, Nihon Kohden Corporation) to measure blood pressure (systolic pressure, diastolic pressure, mean blood pressure) and heart rate (measured from blood pressure pulse wave). […] The data were accumulated as measured values at respective time points and % variation values in which each value before administration was taken as 100.
Turning to `CCc1cccc(Cn2c3c(c4cccnc42)CCN(C(=O)CC24CCC(C(=O)O)(CC2)C4)C3)c1` [Example 6(72), 4-{2-[9-(3-ethylbenzyl)-5,6,8,9-tetrahydro-7H-pyrido[4′,3′:4,5]pyrrolo[2,3-b]pyridin-7-yl]-2-oxoethyl}bicyclo[2.2.1]heptane-1-carboxylic acid], the “influence on a circulatory organ (blood pressure, heart rate)” value was “no influence of the compound of Example 6(72) that is a compound of the present invention was observed on a circulatory organ”.
Regarding `O=C(C[C@H]1CC[C@H](C(=O)O)CC1)N1CCc2c(n(Cc3ccc(F)cc3F)c3ncccc23)C1` [Reference Example 2, trans-4-{2-[9-(2,4-difluorobenzyl)-5,6,8,9-tetrahydro-7H-pyrido[4′,3′:4,5]pyrrolo[2,3-b]pyridin-7-yl}-2-oxoethyl]cyclohexanecarboxylic acid, reference compound], the “influence on a circulatory organ (blood pressure, heart rate)” value is recorded as “An influence of the compound of Reference Example 2 on a circulatory organ was observed”.

Another data set deals with SD male rat. Description: Measurement of urethra internal pressure in rat under anesthesia. Conditions: dose 1.0 mg/kg intravenously. In kind it is in vivo. From the text:
A SD male rat (Crl: CD(SD), Charles River Laboratories Japan, Inc., 7-10 weeks old) which has fasted since the evening of the day before this experiment was anesthetized by subcutaneous administration of 1.5 g/kg urethane at a back of a neck. After an abdominal part was median incised, a catheter for duodenum was inserted within lumen of duodenum and then tied down by string. A lower abdominal part was median incised, and a urethra was ligated at around pubis. A urethral catheter for measuring a urethra internal pressure, equipped with a collar at a tip and filled with a physiological saline was inserted into a urethra through an incised bladder top, and ligation-fixed at a bladder neck part. The urethral catheter was connected to a pressure transducer (manufactured by Nihon Kohden Corporation), and a urethra internal pressure was measured. […] A urethra internal pressure reduction rate (%) was calculated based on a urethra internal pressure after compound administration, wherein a value obtained by subtracting a postmorten basline value (minimum value of urethra internal pressure for 10 minutes after administration of somnopentyl) from a urethra internal pressure value before compound administration (0 minute) was 100%.
As for `CCc1cccc(Cn2c3c(c4cccnc42)CCN(C(=O)CC24CCC(C(=O)O)(CC2)C4)C3)c1` [Example 6(72), 4-{2-[9-(3-ethylbenzyl)-5,6,8,9-tetrahydro-7H-pyrido[4′,3′:4,5]pyrrolo[2,3-b]pyridin-7-yl]-2-oxoethyl}bicyclo[2.2.1]heptane-1-carboxylic acid], the “urethra internal pressure reduction rate” value was determined as 25%.

The target in another data set is human ENPP2 (Homo sapiens (Human), UniProt Q13822). Briefly: Measurement of human ENPP2 inhibitory activity. The data set is classed as biochemical. The conditions noted are these: human ENPP2, 16:0-LPC substrate. The procedure:
10 μL of a test compound solution (10% dimethyl sulfoxide) at each concentration and 40 μL of a 5 μg/mL human ENPP2 solution (buffer A: 100 mmol/L Tris-HCl (pH 9.0), 500 mmol/L NaCl, 5 mmol/L MgCl2, 0.05% Triton X-100) were mixed, 50 μL of a 2 mmol/L 16:0-lysophosphatidylcholine (LPC) solution (buffer A) was further added to react at 37° C. for 24 hours. Subsequently, to 10 ill, of the reaction solution was added 90 III, of a measurement buffer (0.5 mmol/L aminoantipyrine, 0.3 mmol/L N-ethyl-N-(2-hydroxy-3-sulfopropyl)-3-methylaniline, 1 U/mL peroxidase, 3 U/mL choline oxidase, 100 mmol/L Tris-HCl (pH 8.5), 5 mmol/L CaCl2) to react at 37° C. for 20 minutes, and spectrophotometric determination was performed at 555 nm.
Using a standard curve, a choline production amount (enzyme activity) in each test compound was calculated, and the inhibitory activity rate of each test compound was calculated, wherein the enzyme activity in a positive control to which a test compound is not added, was a 0% inhibition rate, and the enzyme activity in a negative control to which a test compound and human ENPP2 are not added, were 100% inhibition. Further, concerning the present compounds shown in Table 3, an IC50 value was calculated from inhibitory activity rate at each concentration.
A word on the IC50: it is the concentration that gives 50% inhibition. `CC(C)(CCCC(=O)N1CCc2c(n(Cc3cnc(C(F)(F)F)s3)c3ncccc23)C1)C(=O)O` [Example 3(50), 2,2-dimethyl-6-oxo-6-(9-{[2-(trifluoromethyl)-1,3-thiazol-5-yl]methyl}-5,6,8,9-tetrahydro-7H-pyrido[4′,3′:4,5]pyrrolo[2,3-b]pyridin-7-yl)hexanoic acid] registered an IC50 of 4.5 nM.
Take `Cc1nc(C(F)(F)F)sc1Cn1c2c(c3cccnc31)CCN(C(=O)C[C@H]1CC[C@@](C)(C(=O)O)C1(C)C)C2` [Example 6(63), (1R,3R)-1,2,2-trimethyl-3-[2-(9-{[4-methyl-2-(trifluoromethyl)-1,3-thiazol-5-yl]methyl}-5,6,8,9-tetrahydro-7H-pyrido[4′,3′:4,5]pyrrolo[2,3-b]pyridin-7-yl)-2-oxoethyl]cyclopentanecarboxylic acid]: the half-inhibitory concentration (IC50) was found to be 8 nM.
Same read-out and setting: next, `COc1cc(CC(=O)N2CCc3c(n(Cc4sc(C(F)(F)F)nc4C)c4ncccc34)C2)cc(OC)c1C(=O)O` [Example 11(24), 2,6-dimethoxy-4-[2-(9-{[4-methyl-2-(trifluoromethyl)-1,3-thiazol-5-yl]methyl}-5,6,8,9-tetrahydro-7H-pyrido[4′,3′:4,5]pyrrolo[2,3-b]pyridin-7-yl)-2-oxoethyl]benzoic acid]: 8.4 nM; `O=C(O)C1=CCN(CC(=O)N2CCc3c(n(Cc4ccc(C(F)(F)F)s4)c4ncccc34)C2)CC1` [Example 7(45), 1-[2-oxo-2-(9-{[5-(trifluoromethyl)-2-thienyl]methyl}-5,6,8,9-tetrahydro-7H-pyrido[4′,3′:4,5]pyrrolo[2,3-b]pyridin-7-yl)ethyl]-1,2,3,6-tetrahydro-4-pyridinecarboxylic acid]: 16 nM; `O=C(CCCC1(C(=O)O)CC1)N1CCc2c(n(Cc3ccc(C(F)(F)F)s3)c3ncccc23)C1` [Example 9(1), 1-[4-oxo-4-(9-{[5-(trifluoromethyl)-2-thienyl]methyl}-5,6,8,9-tetrahydro-7H-pyrido[4′,3′:4,5]pyrrolo[2,3-b]pyridin-7-yl)butyl]cyclopropanecarboxylic acid]: 12 nM.
Same read-out and setting: to `C[C@]1(C(=O)O)CC[C@H](CC(=O)N2CCc3c(n(Cc4ccc(C(F)(F)F)s4)c4ncccc34)C2)CC1` [Example 10(2), trans-1-methyl-4-[2-oxo-2-(9-{[5-(trifluoromethyl)-2-thienyl]methyl}-5,6,8,9-tetrahydro-7H-pyrido[4′,3′:4,5]pyrrolo[2,3-b]pyridin-7-yl)ethyl]cyclohexanecarboxylic acid] belongs 17 nM; to `COc1cc(CC(=O)N2CCc3c(n(Cc4ccc(OC(F)(F)F)cc4)c4ncccc34)C2)ccc1C(=O)O` [Example 11(12), 2-methoxy-4-(2-oxo-2-{9-[4-(trifluoromethoxy)benzyl]-5,6,8,9-tetrahydro-7H-pyrido[4′,3′:4,5]pyrrolo[2,3-b]pyridin-7-yl}ethyl)benzoic acid], 5.4 nM.
The molecule `O=C(CC12CCC(C(=O)O)(CC1)C2)N1CCc2c(n(Cc3cnc(C(F)(F)F)s3)c3ncccc23)C1` [Example 6(65), 4-[2-oxo-2-(9-{[2-(trifluoromethyl)-1,3-thiazol-5-yl]methyl}-5,6,8,9-tetrahydro-7H-pyrido[4′,3′:4,5]pyrrolo[2,3-b]pyridin-7-yl)ethyl]bicyclo[2.2.1]heptane-1-carboxylic acid] showed an IC50 of 5.1 nM.
Still for that read-out and setting: to `O=C(C[C@H]1CC[C@H](C(=O)O)CC1)N1CCc2c(n(Cc3ccc(F)cc3F)c3ncccc23)C1` [Reference Example 2, trans-4-{2-[9-(2,4-difluorobenzyl)-5,6,8,9-tetrahydro-7H-pyrido[4′,3′:4,5]pyrrolo[2,3-b]pyridin-7-yl}-2-oxoethyl]cyclohexanecarboxylic acid, reference compound] belongs 14 nM; to `C[C@]1(C(=O)O)CC[C@H](CC(=O)N2CCc3c(n(Cc4cnc(C(F)(F)F)s4)c4ncccc34)C2)CC1` [Example 10(5), trans-1-methyl-4-[2-oxo-2-(9-{[2-(trifluoromethyl)-1,3-thiazol-5-yl]methyl}-5,6,8,9-tetrahydro-7H-pyrido[4′,3′:4,5]pyrrolo[2,3-b]pyridin-7-yl)ethyl]cyclohexanecarboxylic acid], 3.8 nM.
Same read-out and setting: next, `O=C(O)C1CCN(CC(=O)N2CCc3c(n(Cc4ccc(OC(F)(F)F)cc4)c4ncccc34)C2)CC1` [Example 7(3), 1-(2-oxo-2-{9-[4-(trifluoromethoxy)benzyl]-5,6,8,9-tetrahydro-7H-pyrido[4′,3′:4,5]pyrrolo[2,3-b]pyridin-7-yl}ethyl)-4-piperidinecarboxylic acid hydrochloride]: 28 nM.
In turn, `C[C@@H]1CN(CC(=O)N2CCc3c(n(Cc4ccc(C(F)(F)F)s4)c4ncccc34)C2)C[C@H](C)N1CC(=O)O` [Example 7(41), rel-{(2R,6S)-2,6-dimethyl-4-[2-oxo-2-(9-{[5-(trifluoromethyl)-2-thienyl]methyl}-5,6,8,9-tetrahydro-7H-pyrido[4′,3′:4,5]pyrrolo[2,3-b]pyridin-7-yl)ethyl]-1-piperazinyl}acetic acid dihydrochloride] gave an IC50 of 4.9 nM.
Still for that read-out and setting: to `CC1(C)[C@@H](CC(=O)N2CCc3c(n(Cc4ccc(C(F)(F)F)cc4)c4ncccc34)C2)CC[C@@]1(C)C(=O)O` [Example 6(53), (1R,3R)-1,2,2-trimethyl-3-(2-oxo-2-{9-[4-(trifluoromethyl)benzyl]-5,6,8,9-tetrahydro-7H-pyrido[4′,3′:4,5]pyrrolo[2,3-b]pyridin-7-yl}ethyl)cyclopentanecarboxylic acid] belongs 10 nM.
